Test results reported in patent publication US12285392B2, “Method for modulating metabolism” (Brightseed, Inc., priority 2018, dated 2025).

Experiments:
pH stability assessment = type: physicochemical; conditions: pH 2, 7.4, 8.5 and 10, 37° C., 0.5 and 72 hours
Method: pH Stability Assessment. Individual stock solutions were prepared in DMSO at concentrations of 10 mg/mL. Four different buffer solutions were prepared to achieve solutions with a pH of 2, 7.4, 8.5 and 10. For each pH assay, 5 μL of stock solution was added to 245 μL of buffered solution to a 2 mL tube, vortexed and incubated in a 37° C. water bath. At each timepoint, 50 μL aliquots were taken, neutralized and analyzed via HPLC analysis using a DAD detector at 280 nm. The fold change of the peak area at 280 nm was analyzed for the initial and final timepoint, 0.5 and 72 hours, respectively.

HNF4α [1] = target: T1, HNF4α (Homo sapiens, UniProt P41235); test: Insulin promoter activity assay in T6PNE cells (HNF4α activity); type: cell-based; conditions: for HNF4α modulation in screening: screening in the HNF4α assay
T1 construct: endogenous in cells; host or cells: T6PNE cells
T1 sequence (P41235 1-474): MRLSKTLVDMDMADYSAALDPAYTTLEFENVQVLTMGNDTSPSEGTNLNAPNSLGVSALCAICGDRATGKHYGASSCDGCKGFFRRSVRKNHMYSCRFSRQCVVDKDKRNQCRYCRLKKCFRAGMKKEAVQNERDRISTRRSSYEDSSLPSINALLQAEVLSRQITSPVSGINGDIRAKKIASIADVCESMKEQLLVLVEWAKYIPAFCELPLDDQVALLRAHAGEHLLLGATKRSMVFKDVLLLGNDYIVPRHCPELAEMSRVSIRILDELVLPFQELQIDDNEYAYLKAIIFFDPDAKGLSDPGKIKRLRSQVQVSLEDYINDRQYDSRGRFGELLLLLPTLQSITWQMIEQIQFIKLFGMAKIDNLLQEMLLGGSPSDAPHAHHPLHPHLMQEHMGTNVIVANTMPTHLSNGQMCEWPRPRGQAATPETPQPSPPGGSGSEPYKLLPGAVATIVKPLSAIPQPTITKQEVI
Method: Insulin Promoter Activity. T6PNE cells (Kiselyuk, et al. (2012) Chem Biol. 19(7):806-818; Kiselyuk, et al. (2010) J. Biomol. Screen 15(6):663-70) are seeded at 2000 cells per well in 384-well tissue culture plates in the presence of 1 μM tamoxifen and 0.03 mM palmitate. After a 24-hour incubation, a compound or extract of the invention is added to the cells. Forty-eight hours after compound or extract addition, cells are fixed in 4% paraformaldehyde and stained with DAPI. Blue (DAPI) and green (human insulin promoter driving GFP) channels are imaged.
Inhibition of HNF4α GFP Expression. Using the insulin promoter assay described herein, activity of HNF4α was assessed in the presence of BI-6015 (0, 2.5, 5 μM), a known antagonist of HNF4α (Kiselyuk, et al. (2012) Chem. Biol. 19(7):806-818), in combination with N-trans-caffeoyltyramine (0, 5, 10, 20 μM).
Given the role of HNF4α in maintaining a heal thy metabolism in humans, test compounds were screened for activity as HNF4α agonists (either direct or indirect effects). Using a known insulin promoter-reporter assay, Kiselyuk and colleagues (2010. J. Biomol. Screen 15(6):663-70), screened a library of compounds for activity to promote insulin activation. […] The OTC promoter is known to be responsive to HNF4α in transient transfection assays (Inoue, et al. (2002) J. Biol. Chem. 277:25257-65).

T6PNE cells = test: Lipid clearance in T6PNE cells (steatosis assay); type: cell-based; conditions: 10 μM, 0.25 mM palmitate
Method: T6PNE cells were pretreated for 1 day with 0.06 mM, 0.12 mM or 0.25 mM palmitate at which time 15 μM N-trans-caffeoyltyramine or control (DMSO) was added. Cells were harvested on day 3, 6 and 8 and subjected to staining with Nile Red and Oil Red O. Results are expressed as fold change in Nile Red staining: +palmitate/10% FBS medium (no palmitate)
(§1) Lipid Clearance in HepG2 and T6PNE Cells (Steatosis Assay). The steatosis assay was carried out as described (Kiselyuk, et al. (2012) Chem. Biol. 19(7):806-818) with the exception of the drug concentration, which was 20 μM for N-trans-caffeoyltyramine with 0.25 mM palmitate in HepG2 cell lines, and 10 μM of either N-trans-caffeoyltyramine, N-trans-caffeoyltyramine, or pcoumaroyltyramine, with 0.25 mM palmitate in T6PNE cell lines. Steatosis was assessed using the Oil Red 0 Method for Fats kits (Poly Scientific; Warrington, PA), per manufacturer's guidelines. Briefly, frozen tissue slides or fixed cells were incubated in neat propylene glycol for 2 minutes and Oil Red 0 solution for 15 hours for slides or 1 hour for fixed cells, differentiated in 85% propylene glycol solution for 1 minute, washed twice with distilled water and stained in Hematoxylin of 10 seconds. Slides were mounted with glycerin jelly mounting medium.

estrogenic activity = test: Counter-screen for estrogenic activity (E47MER luciferase reporter in HeLa cells); type: cell-based, human; conditions: FIG. 5
Method: Counter-Screen for Estrogenic Activity. Estrogenic activity was monitored by co-transfection of a reporter plasmid containing a multimerized E-box 5′ of a minimal promoter fused to the Firefly luciferase gene (4RTK-luc) with wild-type E47 or E47MER (Kiselyuk, et al. (2010) J. Biomol. Screen 15(6):663-70). HeLa cells were transfected using polyethylenimine, 0.2 μg 4RTK-Luc plasmid and either 0.3 μg of human E47, E47MER or pMSCVhph vector in 50 μl of serum-free Dulbecco's modification of Eagle medium per well. Transfections included Renilla luciferase (pRL-TK) plasmid as a control for transfection efficacy. Transfection conditions were as described in the PPRE-Luc reporter assay of Kiselyuk, et al. ((2010) J. Biomol. Screen 15(6):663-70). Sixteen hours after transfection, culture media were changed and maintained for 48 hours with tamoxifen and/or compound or vehicle (DMSO). Cells were then lysed and assayed for luciferase activity using the Promega DUAL-LUCIFERASE® reporter assay kit (Promega Corp., Madison, WI), and luminescence was measured using the Veritas™ Microplate Luminometer (Turner Biosystems, Sunnyvale, CA). Data were normalized to Renilla luciferase (pRL-TK) and expressed as fold-change over vehicle alone.

HNF4α mRNA = HNF4α mRNA levels by quantitative PCR; type: cell-based; conditions: FIG. 3
Method: (§2) Expression of Insulin and HNF4α. RNA was purified using a RNEASY® chromatographic separation and isolation kits (Qiagen), and converted to cDNA using the gScript™ cDNA SuperMix (Quanta Biosciences). Q-PCR was conducted with cDNA corresponding to 2 μg of RNA using an Opticon Real-Time System (MJ Research) and QPCR SuperMix (BioPioneer). See All mRNA values were normalized to 18S rRNA values and are expressed as fold changes over vehicle-treated control.

HepG2 cells = test: Lipid clearance in HepG2 cells (steatosis assay, Oil Red O); type: cell-based; conditions: HepG2 liver cells, 20 μM
Method: as §1

[2] = Bioavailability determination in mice; type: in vivo; conditions: mouse, whole blood, 30 mg/kg; male C57BL/6 mice
Method: Bioavailability Determinations.
An 8 μL aliquot of blood was used for analysis.

insulin mRNA = test: Insulin mRNA levels by quantitative PCR; type: cell-based; conditions: FIG. 2
Method: as §2

HNF4α [3] = target: T1, HNF4α; conditions: cited from earlier work
HNF4α [4] = target: T1, HNF4α; conditions: Kiselyuk et al.; cited from earlier work

With O=C(/C=C/c1ccc(O)cc1)NCCc1ccc(O)cc1 [p-coumaroyltyramine] the “pH Stability” value (pH stability assessment) was “Acid Stable”.

In the case of COc1cc(/C=C/C(=O)NCCc2ccc(O)cc2)ccc1O [N-trans-feruloyltyramine], the “HNF4α modulation in screening” value (HNF4α [1]) is reported as “able to act as HNF4α modulators”, the Fat accumulation (T6PNE cells) is reported as “inhibition of fat accumulation” and the Estrogenic activity (estrogenic activity) is reported as “did not exhibit estrogenic activity”. For the same compound, the HNF4α gene expression (HNF4α mRNA) was “upregulated”, the “Clearing of fats (Oil Red O staining)” value (HepG2 cells) was “capable of clearing harmful fats from the liver” and the Accumulation of fats (HepG2 cells; 0.25 mM palmitate) was “inhibited accumulation of fats”. The bioavailability [2] was ~7%, the “pH Stability” value (pH stability assessment) was “Stable” and the Insulin gene expression (insulin mRNA) was “upregulated”.

For O=C(/C=C/c1ccc(O)cc1)NCC(O)c1ccc(O)cc1 (stereo not shown) [p-coumaroyloctopamine], the HNF4α gene expression (HNF4α mRNA) was “inactive” and the Insulin gene expression (insulin mRNA) was “inactive”.

In the case of CCN(CCCCc1ccccc1)CCc1ccccc1 [compound 1], the “HNF4α agonistic activity in OTC promoter assay” value (HNF4α [3]) is given as “possess HNF4α agonistic activity” and the “Insulin activation in insulin promoter-reporter screen” value (HNF4α [4]) is given as “insulin activator”.

In the case of O=C(/C=C\c1ccc(O)c(O)c1)NCCc1ccc(O)cc1 [N-cis-caffeoyltyramine], the “HNF4α modulation in screening” value (HNF4α [1]) is reported as “able to act as HNF4α modulators”.

With Cc1ccc([N+](=O)[O-])cc1S(=O)(=O)n1c(C)nc2ccccc21 [BI-6015, reference compound] the “Effect on N-trans-caffeoyltyramine-mediated increases in insulin expression” value (HNF4α [1]; insulin promoter assay, BI-6015 0, 2.5, 5 μM, FIG. 4) was “inhibited”.

In the case of O=C(/C=C/c1ccc(O)cc1)NCCc1ccc(O)c(O)c1 [N-coumaroyldopamine], the HNF4α gene expression (HNF4α mRNA) is reported as “inactive” and the Insulin gene expression (insulin mRNA) is reported as “inactive”.

For COc1cc(/C=C/C(=O)NCC(O)c2ccc(O)cc2)ccc1O (stereo not shown) [N-transferuloyloctopamine], the HNF4α gene expression (HNF4α mRNA) was “inactive” and the Insulin gene expression (insulin mRNA) was “inactive”.

With COc1cc(/C=C\C(=O)NCCc2ccc(O)cc2)ccc1O [cis-feruloyltyramine, reference compound] the HNF4α gene expression (HNF4α mRNA) was “inactive” and the Insulin gene expression (insulin mRNA) was “inactive”.
